Here are results for 39 molecules from patent US20250221966A1, “RXFP1 AGONISTS” (BRISTOL-MYERS SQUIBB COMPANY, priority 2021, published 2025).

The assay addresses T1, human RXFP1 (Homo sapiens, UniProt Q9HBX9).
T1 construct: expressed in transfected cells
T1 sequence (Q9HBX9 1-757): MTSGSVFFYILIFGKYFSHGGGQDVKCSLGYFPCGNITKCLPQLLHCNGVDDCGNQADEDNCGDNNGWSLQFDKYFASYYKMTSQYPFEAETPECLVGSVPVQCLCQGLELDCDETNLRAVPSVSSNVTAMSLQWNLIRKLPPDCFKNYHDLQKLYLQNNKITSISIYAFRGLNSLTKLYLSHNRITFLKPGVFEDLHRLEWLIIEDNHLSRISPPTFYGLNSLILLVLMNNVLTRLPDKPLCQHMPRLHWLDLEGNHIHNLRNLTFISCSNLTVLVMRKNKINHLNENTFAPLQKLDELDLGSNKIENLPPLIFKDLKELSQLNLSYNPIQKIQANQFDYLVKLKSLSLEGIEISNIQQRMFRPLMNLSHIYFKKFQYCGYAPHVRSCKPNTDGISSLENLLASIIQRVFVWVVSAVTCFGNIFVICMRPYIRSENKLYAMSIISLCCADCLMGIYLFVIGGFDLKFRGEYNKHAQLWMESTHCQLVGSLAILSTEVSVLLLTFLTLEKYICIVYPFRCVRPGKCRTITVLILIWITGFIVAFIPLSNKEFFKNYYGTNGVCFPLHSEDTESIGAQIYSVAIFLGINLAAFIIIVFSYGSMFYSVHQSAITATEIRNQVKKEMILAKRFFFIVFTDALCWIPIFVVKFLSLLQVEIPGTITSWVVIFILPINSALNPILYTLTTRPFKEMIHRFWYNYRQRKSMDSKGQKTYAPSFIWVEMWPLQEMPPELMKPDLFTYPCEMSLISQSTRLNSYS
The assay is described as follows: RXFP1 cAMP assay (hRXFP1 HEK293 cAMP assay, HTRF). It counts as cell-based. Conditions: HEK293 cells stably expressing human RXFP1, 30 min at room temperature, read-out: cAMP hRXFP1 HEK293 Assay EC50. The essentials: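 HEK293 cells stably expressing human RXFP1 were suspended in HBSS (Ca/Mg) with 20 mM HEPES, 0.05% BSA and 0.5 mM IBMX, then treated with compounds (0.010 nM–50 μM, 2% DMSO final) for 30 min at room temperature. Intracellular cAMP was measured by HTRF, and potency was derived from 4-parameter logistic fits.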
A general note: Cyclic AMP is a second messenger, typically raised through Gs and lowered through Gi signalling.
On to `CNC(=O)OC(C(=O)O)c1ccc(F)c(-c2ccc(OC)c(C(=O)N[C@@H]3C4CCC(/C4=C/C(F)(F)F)[C@@H]3C(=O)Nc3ccc(F)c(C(F)(F)F)c3)c2)c1` (stereo partly drawn) [compound 180], for which the concentration for a half-maximal effect (EC50) was determined as 5 nM.
In the case of `COc1ncc(-c2ccc(OC)c(C(=O)N[C@@H]3C4CCC(/C4=C/C4CC4)[C@@H]3C(=O)Nc3ccc(F)c(C(F)(F)F)c3)c2)cn1` (stereo partly drawn) [compound 279], the concentration giving a half-maximal response (EC50) was 15 nM.
Consider `CNC(=O)/C=C1\C2CCC1[C@H](C(=O)Nc1ccc(F)c(C(F)(F)F)c1)[C@@H]2NC(=O)c1cc(F)c(F)cc1OC` (stereo partly drawn) [compound 73], for which the 50% effective concentration (EC50) came to 2400 nM.
`COc1ccc(C2=NOC3COCC23)cc1C(=O)N[C@H]1[C@@H](C(=O)NC2CC3(C2)CC(F)(F)C3)[C@H]2CC[C@@H]1/C2=C\C1CC1` (stereo partly drawn) [compound 605]: the EC50 came to 118 nM.
`COc1ccc(-c2cc([C@H](OC(=O)NC3CCC3)C(F)(F)F)ccc2F)cc1C(=O)N[C@@H]1C2CCC(/C2=C/C2CCC2)[C@@H]1C(=O)Nc1ccc(F)c(C(F)(F)F)c1` (stereo partly drawn) [compound 924]: the EC50 worked out at 5.7 nM.
`COc1c(F)cc(C2=NOC3CC(CO)CC23)cc1C(=O)N[C@H]1[C@@H](C(=O)N[C@H](C)C2(C)CC2)[C@H]2CC[C@@H]1/C2=C\CC(O)C(F)(F)F` (stereo partly drawn) [compound 821]: the half-maximal effective concentration (EC50) stood at 2.5 nM.
As for `COc1ccc(-c2cc(C(F)(F)F)ccc2F)cc1C(=O)N[C@@H]1C2CCC(/C2=C/C2CC(F)(F)C2)[C@@H]1C(=O)Nc1ccc(F)c(C(F)(F)F)c1` (stereo partly drawn) [compound 289], the concentration giving a half-maximal response (EC50) was 548 nM.
For the molecule `COc1ccc(-c2cc(C(NC(=O)C3CCOCC3)C(=O)O)ccc2F)cc1C(=O)N[C@H]1[C@@H](C(=O)Nc2ccc(F)c(C(F)(F)F)c2)[C@H]2CC[C@@H]1/C2=C\CC(C)C` (stereo partly drawn) [compound 941], the EC50 came out at 1.2 nM.
As for `COc1cc(C2CC2)c(C2=NOC3COCC23)cc1C(=O)N[C@H]1[C@@H](C(=O)Nc2ccc(F)c(C(F)(F)F)c2)[C@H]2CC[C@@H]1/C2=C\C1CC1` (single isomer, unassigned) [compound 695], the concentration for a half-maximal effect (EC50) was 836 nM.
`COc1ccc(-c2cc([C@H](OC(=O)NC3CC3)C(F)(F)F)ccc2F)cc1C(=O)N[C@H]1[C@@H](C(=O)Nc2ccc(F)c(C(F)(F)F)c2)[C@H]2CC[C@@H]1/C2=C\C1CCCC1` [compound 927]: the EC50 was determined as 0.4 nM.
For `COc1cc(F)c(F)cc1C(=O)N[C@@H]1C2CCC(C2=C(C)C)[C@@H]1C(=O)Nc1ccnc(C(F)(F)F)c1` (stereo partly drawn) [compound 75], the EC50 is 2600 nM.
The result for `COc1ccc(C2=NOC3COCC23)cc1C(=O)N[C@H]1[C@@H](C(=O)NCc2c(C)noc2C)[C@H]2CC[C@@H]1/C2=C\C1CC1` (stereo partly drawn) [compound 673] reads 477 nM.
With `COc1cccc(/C=C2\C3CCC2[C@H](C(=O)Nc2ccc(F)c(C(F)(F)F)c2)[C@@H]3NC(=O)c2cc(F)c(F)cc2OC)c1` (stereo partly drawn) [compound 19], the EC50 was found to be 720 nM.
In the case of `COc1ccc(C2=NO[C@H]3C[C@H](CO)C[C@@H]23)cc1C(=O)N[C@H]1[C@@H](C(=O)N[C@H](C)C2(C)CC2)[C@H]2CC[C@@H]1/C2=C\C1CC(F)(F)C1` [compound 823], the EC50 stood at 2.6 nM.
As to `COc1ccc(-c2cc(C(CC(=O)O)C(F)(F)F)ccc2F)cc1C(=O)N[C@H]1[C@@H](C(=O)Nc2ccc(F)c(C(F)(F)F)c2)[C@H]2CC[C@@H]1/C2=C\C1CC1` (stereo partly drawn) [compound 873], the EC50 came to 3.3 nM.
Take `COc1ccc(-c2cccc(C(=O)O)c2OC)cc1C(=O)N[C@H]1[C@@H](C(=O)Nc2ccc(F)c(C(F)(F)F)c2)[C@H]2CC[C@@H]1C2=C(C)C` [compound 101]: the EC50 was found to be 580 nM.
Regarding `COc1ccc(-c2ccc(N3CCOCC3)c(C(=O)OC(C)(C)C)c2)cc1C(=O)N[C@H]1[C@@H](C(=O)Nc2ccc(F)c(C(F)(F)F)c2)[C@H]2CC[C@@H]1/C2=C\C1CC1` [Example 251, tert-butyl 3′-(((1R,2R,3S,4R,Z)-7-(cyclopropylmethylene)-3-((4-fluoro-3-(trifluoromethyl)phenyl)carbamoyl)bicyclo[2.2.1]heptan-2-yl)carbamoyl)-4′-methoxy-4-morpholino-[1,1′-biphenyl]-3-carboxylate], the EC50 stood at 36 nM.
For `COc1ccc(C2=NOC3COCC23)cc1C(=O)N[C@H]1[C@@H](C(=O)NC(C)(C)C#N)[C@H]2CC[C@@H]1/C2=C\C1CC1` (stereo partly drawn) [compound 633], the EC50 is 190 nM.
With `COc1ccc(-c2cc(C(OC(=O)NC(C)(C)C)C(F)(F)F)ccc2F)cc1C(=O)N[C@@H]1C2CCC(/C2=C/C2CC2)[C@@H]1C(=O)Nc1ccc(F)c(C(F)(F)F)c1` (stereo partly drawn) [compound 210], the concentration giving a half-maximal response (EC50) amounted to 1 nM.
Consider `COC(=O)C(NC(=O)C1CCOCC1)c1ccc(F)c(-c2ccc(OC)c(C(=O)N[C@@H]3C4CCC(/C4=C/C(F)(F)F)[C@@H]3C(=O)Nc3ccc(F)c(C(F)(F)F)c3)c2)c1` (stereo partly drawn) [compound 247], for which the EC50 was 73 nM.
Regarding `COc1ccc(C2=NOC(COCCO)C2)cc1C(=O)N[C@H]1[C@@H](C(=O)Nc2ccc(F)c(C(F)(F)F)c2)[C@H]2CC[C@@H]1/C2=C\C1CC1` (stereo partly drawn) [compound 546], the EC50 is 32.1 nM.
Turning to `COc1ccc(C2=NOC3CS(=O)(=O)CC23)cc1C(=O)N[C@@H]1C2CCC(/C2=C/C2CC2)[C@@H]1C(=O)Nc1ccc(F)c(C(F)(F)F)c1` (single isomer, unassigned) [compound 444], the EC50 worked out at 410 nM.
The result for `CC(C)=C1C2CCC1[C@H](C(=O)Nc1ccc(F)c(C(F)(F)F)c1)[C@@H]2NC(=O)c1ccccc1OC(C)C` (stereo partly drawn) [compound 115] reads 1100 nM.
Regarding `O=C(N[C@H]1[C@@H](C(=O)NC23CC(F)(C2)C3)[C@H]2CC[C@@H]1/C2=C\C1CC1)c1cc(C2=NOC3CC(CO)CC23)cc(F)c1OCC1CC1` (stereo partly drawn) [compound 763], the 50% effective concentration (EC50) is 2.1 nM.
With `COc1ccc(C2=NOC3COCC23)cc1C(=O)N[C@H]1[C@@H](C(=O)N[C@@H]2CCOc3ccccc32)[C@H]2CC[C@@H]1/C2=C\C1CC1` (stereo partly drawn) [compound 645] the figure was 239 nM; with `COc1ccc(C2=NO[C@H]3C[C@H](CO)CN23)cc1C(=O)N[C@H]1[C@@H](C(=O)Nc2ccc(F)c(C(F)(F)F)c2)[C@H]2CC[C@@H]1/C2=C\CCC(F)(F)F` [compound 818], 2.2 nM; with `COc1cc(C)c(C2=NOC3CC(CO)CC23)cc1C(=O)N[C@H]1[C@@H](C(=O)Nc2ccc(F)c(C(F)(F)F)c2)[C@H]2CC[C@@H]1/C2=C\C1CC1` (stereo partly drawn) [compound 738], 3.3 nM.
On to `CCOC(=O)c1coc(-c2ccc(OC)c(C(=O)N[C@@H]3C4CCC(C4=C(C)C)[C@@H]3C(=O)Nc3ccc(F)c(C(F)(F)F)c3)c2)n1` (stereo partly drawn) [Example 110], for which the EC50 is 800 nM.
For the molecule `COc1cc(F)c(F)cc1C(=O)N[C@@H]1C2CCC([C@@H]1C(=O)Nc1ccc(F)c(C(F)(F)F)c1)C21OCCO1` (stereo partly drawn) [Example 147], the EC50 is 1800 nM.
For `COc1ccc(-c2cc(C(OC(=O)NC3CCC3)C(F)(F)F)ccc2F)cc1C(=O)N[C@@H]1C2CCC(/C2=C/C2CC2)[C@@H]1C(=O)Nc1ccc(F)c(C(F)(F)F)c1` (stereo partly drawn) [compound 221], the concentration for a half-maximal effect (EC50) amounted to 26 nM.
The result for `COc1ccc(-c2cc(C(OC(=O)Nc3ccccc3)C(=O)O)ccc2F)cc1C(=O)N[C@H]1[C@@H](C(=O)Nc2ccc(F)c(C(F)(F)F)c2)[C@H]2CC[C@@H]1/C2=C\C1CC1` (stereo partly drawn) [compound 965] reads 4.8 nM; that for `COc1ccc(-c2cc(C(COC(=O)Nc3ccccc3)C(F)(F)F)ccc2F)cc1C(=O)N[C@H]1[C@@H](C(=O)Nc2ccc(F)c(C(F)(F)F)c2)[C@H]2CC[C@@H]1/C2=C\C1CC1` (stereo partly drawn) [compound 875], 1.8 nM.
For `COCCOC1(C2CC(c3ccc(OC)c(C(=O)N[C@H]4[C@@H](C(=O)Nc5ccc(F)c(C(F)(F)F)c5)[C@H]5CC[C@@H]4/C5=C\C4CC4)c3)=NO2)CC1` (single isomer, unassigned) [compound 687], the EC50 was determined as 658 nM.
Regarding `COc1ccc(N2CC(=O)NC2=O)cc1C(=O)N[C@H]1[C@@H](C(=O)Nc2ccc(F)c(C(F)(F)F)c2)[C@H]2CC[C@@H]1/C2=C\C1CC1` [compound 697], the 50% effective concentration (EC50) stood at 972 nM.
Take `COc1ccc(C2=NOC3COCC23)cc1C(=O)N[C@H]1[C@@H](C(=O)NC2Cc3ccccc3C2)[C@H]2CC[C@@H]1/C2=C\C1CC1` (stereo partly drawn) [compound 610]: the concentration for a half-maximal effect (EC50) was found to be 132 nM.
On to `COc1ccc(-c2nc(C(=O)O)co2)cc1C(=O)N[C@@H]1C2CCC(C2=C(C)C)[C@@H]1C(=O)Nc1ccc(F)c(C(F)(F)F)c1` (stereo partly drawn) [Example 113], for which the EC50 stood at 1800 nM.
In the case of `COc1ccc(-c2cc(S(C)(=O)=O)ccc2F)cc1C(=O)N[C@H]1[C@@H](C(=O)Nc2ccc(F)c(C(F)(F)F)c2)[C@H]2CC[C@@H]1/C2=C\C1CCCC1` [compound 907], the half-maximal effective concentration (EC50) turned out to be 0.1 nM.
In the case of `COc1ccc(-c2cnn3c2COCC3)cc1C(=O)N[C@H]1[C@@H](C(=O)N[C@H](C)C2(C)CC2)[C@H]2CC[C@@H]1/C2=C\C1CC1` [compound 745], the EC50 came out at 1.2 nM.
As for `COc1ccc(C2=NO[C@H]3CC(CO)C[C@@H]23)cc1C(=O)N[C@H]1[C@@H](C(=O)Nc2ccc(F)c(C(F)(F)F)c2)[C@H]2CC[C@@H]1/C2=C\CC(C)(C)C` (stereo partly drawn) [compound 841], the EC50 worked out at 4.7 nM.

As usually defined, the EC50 is the concentration that produces a half-maximal response.
